The values that follow come from PMC3759900, “Acetylcholinesterase Reactivators (HI-6, Obidoxime, Trimedoxime, K027, K075, K127, K203, K282): Structural Evaluation of Human Serum Albumin Binding and Absorption Kinetics” (International Journal of Molecular Sciences, 2013).

For data set [1], the target named is Human Serum Albumin (HSA) (Homo sapiens, UniProt P02768). The experiment in a line: HSA binding by ultrafiltration (Centrifree) and HPLC. Conditions: HSA 45 g/L in phosphate buffer saline, 90 min at 37 °C, mean of three independent measurements.
Data set [2] can be described thus: Pharmacokinetic study, plasma concentration after i.m. injection (HPLC). The settings on record: male Wister rats, description of plasma kinetic curves.

Sequence of Human Serum Albumin (HSA) (P02768 25-609): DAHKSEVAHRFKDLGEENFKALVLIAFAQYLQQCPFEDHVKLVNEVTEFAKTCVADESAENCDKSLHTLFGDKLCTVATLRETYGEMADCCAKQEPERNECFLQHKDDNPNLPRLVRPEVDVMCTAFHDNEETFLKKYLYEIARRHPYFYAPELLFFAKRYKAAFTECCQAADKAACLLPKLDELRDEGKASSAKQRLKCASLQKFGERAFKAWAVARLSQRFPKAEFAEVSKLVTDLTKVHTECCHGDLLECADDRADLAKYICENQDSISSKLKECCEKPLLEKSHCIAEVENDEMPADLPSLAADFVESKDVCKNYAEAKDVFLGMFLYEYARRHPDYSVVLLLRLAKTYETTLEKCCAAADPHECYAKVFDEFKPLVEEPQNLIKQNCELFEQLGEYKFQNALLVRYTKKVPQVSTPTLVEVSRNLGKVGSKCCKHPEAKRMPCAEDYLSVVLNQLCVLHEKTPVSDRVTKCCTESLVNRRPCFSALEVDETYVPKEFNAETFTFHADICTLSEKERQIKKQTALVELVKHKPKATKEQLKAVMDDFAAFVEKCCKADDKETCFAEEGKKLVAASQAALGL

`NC(=O)c1cc[n+](CCOCC[n+]2ccc(C=NO)cc2)cc1` [K127]: in data set [1], the “Binding to Human Serum Albumin (HSA)” value was determined as 4%.

With `O/N=C/c1cc[n+](CCC[n+]2ccc(/C=N/O)cc2)cc1` [Trimedoxime, trimedoxime], in data set [2], the “Elimination from blood (kinetic curve profile)” value (“Elimination from blood” for short) is “slow elimination from the blood”. Also, the “Binding to Human Serum Albumin (HSA)” value in data set [1] is listed as 6%.

For `ON=Cc1cc[n+](C/C=C\C[n+]2ccc(C=NO)cc2)cc1` [K282], the “Binding to Human Serum Albumin (HSA)” value in data set [1] worked out at 12%.

Take `NC(=O)c1cc[n+](C/C=C/C[n+]2ccc(/C=N/O)cc2)cc1` [K203]: the “Binding to Human Serum Albumin (HSA)” value in data set [1] is 15%.

As to `NC(=O)c1cc[n+](COC[n+]2ccccc2/C=N/O)cc1` [HI-6], the “Elimination from blood” value in data set [2] is reported as “slow elimination from the blood”. For the same compound, the “Binding to Human Serum Albumin (HSA)” value in data set [1] amounted to 1%.

With `O/N=C/c1cc[n+](COC[n+]2ccc(/C=N/O)cc2)cc1` [Obidoxime, obidoxime], in data set [2], the “Elimination from blood” value is on record as “relatively fast elimination”.

In the case of `NC(=O)c1cc[n+](CCC[n+]2ccc(/C=N/O)cc2)cc1` [K027], the “Binding to Human Serum Albumin (HSA)” value in data set [1] came to 5%.

Regarding `O/N=C/c1cc[n+](C/C=C/C[n+]2ccc(/C=N/O)cc2)cc1` [K075], the “Binding to Human Serum Albumin (HSA)” value in data set [1] turned out to be 10%.
